Laboratory results taken from ChEMBL document CHEMBL1201862, “PubChem BioAssay data set” (2004).
Activity calls are given as the source filed them.

How the values were obtained:
[1] = biological target: T1, Sentrin-specific protease 7 (Homo sapiens, UniProt Q9BQF6); assay: SENP7 protease inhibitors, SAR follow-up, biochemical, luminescence (AID 504497); format: functional
T1 sequence (Q9BQF6 whole entry): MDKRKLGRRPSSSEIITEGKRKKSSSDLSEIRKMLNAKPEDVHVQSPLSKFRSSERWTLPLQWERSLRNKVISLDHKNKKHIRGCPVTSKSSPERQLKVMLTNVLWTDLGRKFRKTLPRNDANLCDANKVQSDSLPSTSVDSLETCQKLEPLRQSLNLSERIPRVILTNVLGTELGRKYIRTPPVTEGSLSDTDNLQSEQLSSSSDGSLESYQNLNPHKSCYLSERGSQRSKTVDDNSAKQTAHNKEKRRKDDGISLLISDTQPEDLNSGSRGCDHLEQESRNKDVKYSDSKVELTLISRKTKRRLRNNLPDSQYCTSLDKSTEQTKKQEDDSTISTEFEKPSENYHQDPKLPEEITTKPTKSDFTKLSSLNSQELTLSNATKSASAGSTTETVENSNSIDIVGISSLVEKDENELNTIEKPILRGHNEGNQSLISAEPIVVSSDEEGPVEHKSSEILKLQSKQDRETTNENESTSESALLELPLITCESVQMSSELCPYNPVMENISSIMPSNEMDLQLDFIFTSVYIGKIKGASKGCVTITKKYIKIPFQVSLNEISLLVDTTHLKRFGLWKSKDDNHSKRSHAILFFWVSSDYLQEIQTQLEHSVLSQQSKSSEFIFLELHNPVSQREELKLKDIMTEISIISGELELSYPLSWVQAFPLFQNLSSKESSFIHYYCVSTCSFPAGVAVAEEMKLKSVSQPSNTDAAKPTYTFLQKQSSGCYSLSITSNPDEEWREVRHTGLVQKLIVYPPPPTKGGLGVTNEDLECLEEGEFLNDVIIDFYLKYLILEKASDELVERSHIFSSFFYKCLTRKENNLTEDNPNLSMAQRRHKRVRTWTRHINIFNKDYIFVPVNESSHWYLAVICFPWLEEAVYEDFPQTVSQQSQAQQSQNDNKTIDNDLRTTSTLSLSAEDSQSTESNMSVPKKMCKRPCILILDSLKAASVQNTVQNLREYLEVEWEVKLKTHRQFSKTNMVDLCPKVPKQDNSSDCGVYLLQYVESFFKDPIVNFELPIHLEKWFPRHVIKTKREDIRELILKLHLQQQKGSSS

[2] = biological target: T2, Sentrin-specific protease 8 (Homo sapiens, UniProt Q96LD8); assay: SENP8 protease inhibitors, SAR follow-up, biochemical, luminescence (AID 504501); format: functional
T2 sequence (Q96LD8 whole entry): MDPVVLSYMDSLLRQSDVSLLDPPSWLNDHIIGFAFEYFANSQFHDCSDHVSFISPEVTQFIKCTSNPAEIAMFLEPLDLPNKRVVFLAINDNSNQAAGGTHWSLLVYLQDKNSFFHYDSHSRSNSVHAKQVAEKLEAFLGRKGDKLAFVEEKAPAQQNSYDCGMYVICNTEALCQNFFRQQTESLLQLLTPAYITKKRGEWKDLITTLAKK

[3] = biological target: T3, Sentrin-specific protease 6 (Homo sapiens, UniProt Q9GZR1); assay: SAR Analysis of small molecule inhibitors of Sentrin-specific protease 6 (SENP6) using a Luminescent assay. [Related pubchem assays (depositor defined):AID2582, AID2599]; format: functional
T3 sequence (Q9GZR1 whole entry): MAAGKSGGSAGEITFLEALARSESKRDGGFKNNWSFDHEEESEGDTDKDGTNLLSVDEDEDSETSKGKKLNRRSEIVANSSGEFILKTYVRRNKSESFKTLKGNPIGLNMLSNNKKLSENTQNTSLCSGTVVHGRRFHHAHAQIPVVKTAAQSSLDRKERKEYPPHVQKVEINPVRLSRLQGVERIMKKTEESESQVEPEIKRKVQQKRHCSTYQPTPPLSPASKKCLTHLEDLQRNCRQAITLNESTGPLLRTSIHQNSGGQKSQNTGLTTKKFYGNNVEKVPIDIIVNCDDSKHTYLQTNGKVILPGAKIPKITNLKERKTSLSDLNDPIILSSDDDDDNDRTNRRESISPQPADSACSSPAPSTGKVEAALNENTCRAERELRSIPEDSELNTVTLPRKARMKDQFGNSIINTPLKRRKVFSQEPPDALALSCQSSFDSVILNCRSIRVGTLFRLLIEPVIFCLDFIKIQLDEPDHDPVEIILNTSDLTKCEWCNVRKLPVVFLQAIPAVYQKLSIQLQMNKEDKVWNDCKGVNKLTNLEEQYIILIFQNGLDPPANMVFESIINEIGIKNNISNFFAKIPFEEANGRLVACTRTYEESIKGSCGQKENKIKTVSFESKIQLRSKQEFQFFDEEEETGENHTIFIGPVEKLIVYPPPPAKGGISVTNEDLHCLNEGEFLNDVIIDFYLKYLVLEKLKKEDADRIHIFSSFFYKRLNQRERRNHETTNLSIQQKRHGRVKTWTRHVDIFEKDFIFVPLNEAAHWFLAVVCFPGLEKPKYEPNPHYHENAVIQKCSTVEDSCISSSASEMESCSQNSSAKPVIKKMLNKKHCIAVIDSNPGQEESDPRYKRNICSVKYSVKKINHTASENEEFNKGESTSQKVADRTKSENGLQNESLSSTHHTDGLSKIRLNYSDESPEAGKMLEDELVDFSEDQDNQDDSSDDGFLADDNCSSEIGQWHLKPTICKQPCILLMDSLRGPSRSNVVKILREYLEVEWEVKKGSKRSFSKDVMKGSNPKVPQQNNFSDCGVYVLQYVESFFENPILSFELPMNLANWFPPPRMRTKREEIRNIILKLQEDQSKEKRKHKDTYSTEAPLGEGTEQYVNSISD

Caspase-3 [4] = biological target: T4, Caspase-3 (Homo sapiens, UniProt P42574); assay: SAR Analysis of small molecule inhibitors of Sentrin-specific proteases (SENPs) using a Caspase-3 Selectivity assay. [Related pubchem assays (depositor defined):AID2540, AID2599, AID434973, AID489001]; format: functional
T4 sequence (P42574 whole entry): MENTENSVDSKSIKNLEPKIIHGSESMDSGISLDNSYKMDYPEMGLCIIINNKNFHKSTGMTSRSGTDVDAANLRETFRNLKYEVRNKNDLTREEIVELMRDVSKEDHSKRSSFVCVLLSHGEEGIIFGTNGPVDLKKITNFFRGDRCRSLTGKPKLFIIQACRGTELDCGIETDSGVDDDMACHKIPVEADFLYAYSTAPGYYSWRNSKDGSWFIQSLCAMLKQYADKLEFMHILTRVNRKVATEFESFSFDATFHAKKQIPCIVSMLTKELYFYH

[5] = biological target: Protein disulfide-isomerase (Homo sapiens, UniProt P07237); assay: PDI inhibitors, insulin aggregation turbidity, dose response, biochemical, absorbance, cherry-picked samples (AID 602350); format: functional
Chain of Protein disulfide-isomerase (P07237 whole entry): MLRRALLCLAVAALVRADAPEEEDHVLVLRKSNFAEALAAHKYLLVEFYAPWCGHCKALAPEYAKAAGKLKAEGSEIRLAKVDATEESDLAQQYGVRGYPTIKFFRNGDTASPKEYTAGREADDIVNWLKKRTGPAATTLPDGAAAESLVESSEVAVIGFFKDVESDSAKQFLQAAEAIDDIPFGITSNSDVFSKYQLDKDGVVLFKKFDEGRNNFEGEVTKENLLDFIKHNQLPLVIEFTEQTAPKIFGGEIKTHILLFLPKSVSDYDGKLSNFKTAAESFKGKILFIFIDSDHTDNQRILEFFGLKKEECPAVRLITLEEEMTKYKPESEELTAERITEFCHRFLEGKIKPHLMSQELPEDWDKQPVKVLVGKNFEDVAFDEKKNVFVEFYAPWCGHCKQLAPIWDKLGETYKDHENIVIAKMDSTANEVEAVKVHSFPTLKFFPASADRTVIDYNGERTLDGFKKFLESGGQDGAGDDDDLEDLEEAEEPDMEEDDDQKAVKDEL

Orexin receptor type 2 [6] = biological target: T5, Orexin receptor type 2 (Homo sapiens, UniProt O43614); assay: Counterscreen assay for antagonists of the orexin 1 receptor (OX1R; HCRTR1): Homogeneous Time Resolved Fluorescence (HTRF)-based cell-based dose response assay for antagonists of the orexin 2 receptor (OX2R; HCRTR2), run by assay provider.; format: functional
T5 sequence (O43614 whole entry): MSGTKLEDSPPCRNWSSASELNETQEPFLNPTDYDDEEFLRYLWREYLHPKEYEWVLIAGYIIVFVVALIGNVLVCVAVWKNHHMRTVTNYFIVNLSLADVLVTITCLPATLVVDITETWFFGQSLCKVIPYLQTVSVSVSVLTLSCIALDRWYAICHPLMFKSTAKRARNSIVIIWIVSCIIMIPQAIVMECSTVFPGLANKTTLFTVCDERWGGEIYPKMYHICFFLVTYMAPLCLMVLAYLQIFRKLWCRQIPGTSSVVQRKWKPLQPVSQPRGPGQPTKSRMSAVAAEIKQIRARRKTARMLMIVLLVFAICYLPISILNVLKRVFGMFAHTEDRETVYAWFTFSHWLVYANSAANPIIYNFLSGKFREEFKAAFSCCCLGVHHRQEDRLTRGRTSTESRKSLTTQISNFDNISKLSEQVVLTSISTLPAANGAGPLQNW

[7] = biological target: T6, Orexin/Hypocretin receptor type 1 (Homo sapiens, UniProt O43613); assay: Fluorescence-based cell-based high throughput dose response assay for antagonists of the orexin 1 receptor (OX1R; HCRTR1). [Related pubchem assays (depositor defined):AID434989, AID435008, AID463079, AID485270, AID492963, AID492964, AID492965, AID493232, AID504717, AID504718]; format: functional
T6 sequence (O43613 whole entry): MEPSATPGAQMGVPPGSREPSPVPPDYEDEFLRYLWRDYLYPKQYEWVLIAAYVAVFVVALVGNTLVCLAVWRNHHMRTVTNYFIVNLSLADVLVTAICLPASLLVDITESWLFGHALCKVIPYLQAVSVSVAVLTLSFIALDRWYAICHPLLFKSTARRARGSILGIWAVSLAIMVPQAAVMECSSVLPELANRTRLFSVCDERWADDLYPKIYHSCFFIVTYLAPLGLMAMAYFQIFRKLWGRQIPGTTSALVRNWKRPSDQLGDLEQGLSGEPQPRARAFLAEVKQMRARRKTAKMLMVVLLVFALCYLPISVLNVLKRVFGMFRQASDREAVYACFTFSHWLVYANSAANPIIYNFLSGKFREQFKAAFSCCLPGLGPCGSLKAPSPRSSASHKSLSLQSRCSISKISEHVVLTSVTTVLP

[8] = biological target: T6, Orexin/Hypocretin receptor type 1; assay: Homogeneous Time Resolved Fluorescence (HTRF)-based cell-based high throughput dose response assay for antagonists of the orexin 1 receptor (OX1R; HCRTR1). [Related pubchem assays (depositor defined):AID434989, AID435008, AID463079, AID485270, AID492963, AID492964, AID492965, AID493232, AID504717, AID504718]; format: functional
[9] = Counterscreen for antagonists of the orexin 1 receptor (OX1R; HCRTR1): Fluorescence-based cell-based high throughput dose response assay to identify antagonists of the parental CHO cell line. [Related pubchem assays (depositor defined):AID434989, AID435008, AID463079, AID485270, AID492963, AID492964, AID492965, AID493232, AID504699, AID504701]; format: functional
Orexin receptor type 2 [10] = biological target: T5, Orexin receptor type 2; assay: Counterscreen assay for antagonists of the orexin 1 receptor (OX1R; HCRTR1): Fluorescence-based cell-based dose response assay for antagonists of the orexin 2 receptor (OX2R; HCRTR2), run by assay provider.; format: functional
CHO-K1 = assay: Counterscreen for antagonists of the orexin 1 receptor (OX1R; HCRTR1): Homogeneous time resolved fluorescence (HTRF)-based cell-based dose response assay to identify antagonists of the parental CHO-K1 cell line. [Related pubchem assays (depositor defined):AID434989, AID435008, AID463079, AID485270, AID492963, AID492964, AID492965, AID493232, AID504699, AID504701]; format: functional; conditions: Cricetulus griseus
[11] = biological target: T1, Sentrin-specific protease 7; assay: SENP7 protease inhibitors, SAR follow-up, biochemical, luminescence, set 2 (AID 588600); format: functional
Caspase-3 [12] = biological target: T4, Caspase-3; assay: caspase-3 inhibitors as off-family protease, SAR follow-up, selectivity assay for SENP protease inhibitor project, biochemical, luminescence, set 2 (AID 588599); format: functional
[13] = biological target: T2, Sentrin-specific protease 8; assay: SENP8 protease inhibitors, SAR follow-up, biochemical, luminescence, set 2 (AID 588601); format: functional
[14] = biological target: T3, Sentrin-specific protease 6; assay: SENP6 protease inhibitors, SAR follow-up, biochemical, luminescence, set 2 (AID 588598); format: functional
[15] = biological target: NAD-dependent protein deacylase sirtuin-5, mitochondrial (Homo sapiens, UniProt Q9NXA8); assay: SIRT5 desuccinylase inhibitors, dose response, biochemical, fluorescence imaging, cherry-pick, set 5 (AID 720591);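 also: desuccinylation of succinyl peptide AMC substrate read as fluorescence after trypsin release; potency of inhibitors that lower fluorescence and may act on trypsin instead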
Chain of NAD-dependent protein deacylase sirtuin-5, mitochondrial (Q9NXA8 whole entry): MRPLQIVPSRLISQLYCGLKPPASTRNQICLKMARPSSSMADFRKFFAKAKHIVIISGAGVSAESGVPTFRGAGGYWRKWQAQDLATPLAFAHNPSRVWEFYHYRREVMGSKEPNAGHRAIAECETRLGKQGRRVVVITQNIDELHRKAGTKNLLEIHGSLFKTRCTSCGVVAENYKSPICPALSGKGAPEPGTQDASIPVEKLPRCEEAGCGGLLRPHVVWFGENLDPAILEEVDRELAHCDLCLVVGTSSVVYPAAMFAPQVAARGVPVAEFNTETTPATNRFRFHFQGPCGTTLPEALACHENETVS

[16] = NIH-3T3 fibroblast cytotoxicity, dose response, cytotoxicity control, cell-based, fluorescence, Alamar Blue, secondary assay (AID 2327); format: functional;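 also: NIH-3T3 mouse fibroblasts cultured with fluconazole at 8 µg/mL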
[17] = C. albicans growth with fluconazole, confirmation, fluorescence, retest (AID 2467); format: functional, cell-based

## CCc1cccc2sc(NC(=O)c3cccc(F)c3)nc12
[1]
  IC50: > 99 µM (inactive)
[2]
  IC50: > 99 µM (inactive)
[3]
  IC50: > 99 µM (inactive)
Caspase-3 [4]
  IC50: > 99 µM (inactive)

## C[C@H]1CN([C@@H](C)CO)C(=O)c2cc(NC(=O)Cc3cn(C)c4ccccc34)ccc2O[C@H]1CN(C)S(=O)(=O)c1ccc(F)cc1
[5]
  AC50: 19.5 µM (active)

## Cn1c2ccc(Cl)cc2c2nc3ccccc3nc21
Orexin receptor type 2 [6]
  IC50: > 50 µM (inactive)
[7]
  IC50: 4.25 µM (active)
[8]
  IC50: 1.13 µM (active)
[9]
  IC50: > 49.8 µM (inactive)
Orexin receptor type 2 [10]
  IC50: > 88.8 µM (inactive)
CHO-K1
  IC50: > 66.2 µM (inactive)

## O=C(NCc1ccccc1F)C(=O)c1c[nH]c2ccccc12
[11]
  IC50: > 99 µM (inactive)
Caspase-3 [12]
  IC50: > 99 µM (inactive)
[13]
  IC50: > 99 µM (inactive)
[14]
  IC50: > 99 µM (inactive)

## CC[C@]12c3[nH]c4cc(-c5ccco5)ccc4c3CCN1C(=O)[C@@H](CC(=O)NCCCOC)C[C@@H]2C(=O)N1CCN(C(=O)c2ccco2)CC1
[5]
  AC50: 16.7 µM (active)

## CCOc1ccccc1C(=O)Nc1ccc2nc3n(c(=O)c2c1)CCCCC3
[15]
  AC50: > 30 µM (inactive)
Orexin receptor type 2 [6]
  IC50: > 50 µM (inactive)
[7]
  IC50: 2.58 µM (active)
[16]
  EC50: > 160 µM (inactive)
[8]
  IC50: 0.417 µM (active)
[9]
  IC50: > 49.8 µM (inactive)
Orexin receptor type 2 [10]
  IC50: > 88.8 µM (inactive)
CHO-K1
  IC50: > 66.3 µM (inactive)
[17]
  EC50: > 38 µM (not active)

## O=C(COc1ccc(Cl)cc1Cl)NCC(=O)N/N=C/c1c[nH]c2ccccc12
[11]
  IC50: > 99 µM (inactive)
Caspase-3 [12]
  IC50: > 99 µM (inactive)
[13]
  IC50: > 99 µM (inactive)
[14]
  IC50: > 99 µM (inactive)
